Data reported in patent publication US10669240B2, “5-substituted indazole-3-carboxamides and preparation and use thereof” (Samumed, LLC, priority 2014, dated 2020).

These molecules were tested against DYRK1A (Homo sapiens (Human), UniProt Q13627) (assay: DYRK1A activity Tau assay: pSer396 Tau in SH-SY5Y cells by ELISA / western blot). Conditions: overnight (16-18 h) exposure.
Assay type: cell-based

How did the EC50 turn out when `O=C(NC1CCN(Cc2ccccc2)CC1)c1n[nH]c2ccc(-c3cccnc3)cc12` [Compound 1152, N-(1-Benzylpiperidin-4-yl)-5-(pyridin-3-yl)-1H-indazole-3-carboxamide] was run?
The EC50 was 3 nM.

With `CC(C)(F)CN1CCC(NC(=O)c2n[nH]c3ccc(-c4cncc(Cl)c4)cc23)CC1` [Compound 1311, 5-(5-Chloropyridin-3-yl)-N-(1-(2-fluoro-2-methylpropyl)piperidin-4-yl)-1H-indazole-3-carboxamide] as the molecule, how does the EC50 read?
The EC50 was 30 nM.

Which EC50 does the source give for `CC(C)CN1CCC(NC(=O)c2n[nH]c3ccc(-c4cccc(F)c4F)cc23)CC1` [Compound 93, 5-(2,3-Difluorophenyl)-N-(1-isobutylpiperidin-4-yl)-1H-indazole-3-carboxamide] here?
The EC50 was 73 nM.

For `CC(C)(F)CN1CCC(NC(=O)c2n[nH]c3ccc(-c4cncc(F)c4)cc23)CC1` [Compound 1310, N-(1-(2-Fluoro-2-methylpropyl)piperidin-4-yl)-5-(5-fluoropyridin-3-yl)-1H-indazole-3-carboxamide], which EC50 is on record?
Its EC50 is 19 nM.

How did the EC50 turn out when `O=C(NCc1ccccc1)c1n[nH]c2ccc(-c3cncc(CN4CCCCC4)c3)cc12` [Compound 26, N-Benzyl-5-(5-(piperidin-1-ylmethyl)pyridin-3-yl)-1H-indazole-3-carboxamide] was run?
Its EC50 is 1 nM.

With `O=C(Nc1ccc(CN2CCCC2)cc1)c1n[nH]c2ccc(-c3cccnc3)cc12` [Compound 1326, 5-(Pyridin-3-yl)-N-(4-(pyrrolidin-1-ylmethyl)phenyl)-1H-indazole-3-carboxamide] as the molecule, how does the EC50 read?
The EC50 was 10 nM.

`CC(C)CCN1CCC(NC(=O)c2n[nH]c3ccc(-c4cccnc4)cc23)CC1` [Compound 1316, N-(1-Isopentylpiperidin-4-yl)-5-(pyridin-3-yl)-1H-indazole-3-carboxamide] was tested. Which EC50 did it give?
Its EC50 is 12 nM.

For `CC(C)CNC(=O)c1n[nH]c2ccc(-c3cccnc3)cc12` [Compound 1254, N-Isobutyl-5-(pyridin-3-yl)-1H-indazole-3-carboxamide], which EC50 is on record?
The EC50 was 9 nM.

With `COc1cccc(-c2ccc3[nH]nc(C(=O)NC(C)C)c3c2)c1F` [Compound 1339, 5-(2-Fluoro-3-methoxyphenyl)-N-isopropyl-1H-indazole-3-carboxamide] as the molecule, how does the EC50 read?
The EC50 was greater than 10000 nM.

For `O=C(NC1CCCC1)c1n[nH]c2ccc(-c3cncc(Cl)c3)cc12` [Compound 1279, 5-(5-Chloropyridin-3-yl)-N-cyclopentyl-1H-indazole-3-carboxamide], which EC50 is on record?
Its EC50 is 98 nM.

`NC1CN(c2cncc(-c3ccc4[nH]nc(C(=O)Nc5cccnc5)c4c3)n2)C1` [Compound 1317, 5-(6-(3-Aminoazetidin-1-yl)pyrazin-2-yl)-N-(pyridin-3-yl)-1H-indazole-3-carboxamide] was tested. Which EC50 did it give?
Its EC50 is 1 nM.

How did the EC50 turn out when `O=C(NC1CCN(CC(F)F)CC1)c1n[nH]c2ccc(-c3cncc(Cl)c3)cc12` [Compound 1299, 5-(5-Chloropyridin-3-yl)-N-(1-(2,2-difluoroethyl)piperidin-4-yl)-1H-indazole-3-carboxamide] was run?
Its EC50 is 20 nM.

`CN1CCN(Cc2ccc(NC(=O)c3n[nH]c4ccc(-c5cccc(F)c5F)cc34)cc2)CC1` [Compound 1332, 5-(2,3-Difluorophenyl)-N-(4-((4-methylpiperazin-1-yl)methyl)phenyl)-1H-indazole-3-carboxamide] was tested. Which EC50 did it give?
The EC50 was 14 nM.

How did the EC50 turn out when `CN1CCC(NC(=O)c2n[nH]c3ccc(-c4cccc(F)c4F)cc23)CC1` [Compound 20, 5-(2,3-Difluorophenyl)-N-(1-methylpiperidin-4-yl)-1H-indazole-3-carboxamide] was run?
Its EC50 is 29 nM.

Which EC50 does the source give for `CC(C)N1CCC(NC(=O)c2n[nH]c3cc(Cl)c(-c4cccnc4)cc23)CC1` [Compound 1304, 6-Chloro-N-(1-isopropylpiperidin-4-yl)-5-(pyridin-3-yl)-1H-indazole-3-carboxamide] here?
The EC50 was 96 nM.

For `CN(C)Cc1cncc(-c2ccc3[nH]nc(C(=O)NC4Cc5ccccc5C4)c3c2)c1` [Compound 23, N-(2,3-Dihydro-1H-inden-2-yl)-5-(5-((dimethylamino)methyl)pyridin-3-yl)-1H-indazole-3-carboxamide], which EC50 is on record?
The EC50 was 31 nM.

`O=C(Nc1ncccc1C(F)(F)F)c1n[nH]c2ccc(-c3cncc(CN4CCCCC4)c3)cc12` [Compound 59, 5-(5-(Piperidin-1-ylmethyl)pyridin-3-yl)-N-(3-(trifluoromethyl)pyridin-2-yl)-1H-indazole-3-carboxamide] was tested. Which EC50 did it give?
Its EC50 is 13 nM.

How did the EC50 turn out when `O=C(NCc1cccc(F)c1)c1n[nH]c2ccc(-c3cc(F)cc(CN4CCCCC4)c3)cc12` [Compound 30, 5-(3-Fluoro-5-(piperidin-1-ylmethyl)phenyl)-N-(3-fluorobenzyl)-1H-indazole-3-carboxamide] was run?
Its EC50 is 120 nM.

Which EC50 does the source give for `C#CCN1CCC(NC(=O)c2n[nH]c3ccc(-c4cccnc4)cc23)CC1` [Compound 349, N-(1-(Prop-2-yn-1-yl)piperidin-4-yl)-5-(pyridin-3-yl)-1H-indazole-3-carboxamide] here?
The EC50 was 5 nM.

Which EC50 does the source give for `CC[C@H](C)NC(=O)c1n[nH]c2ccc(-c3cccnc3)cc12` [Compound 1258, (S)—N-(sec-butyl)-5-(pyridin-3-yl)-1H-indazole-3-carboxamide] here?
Its EC50 is 20 nM.

For `O=C(NC1CC1)c1n[nH]c2ccc(-c3cncc(CN4CCCC4)c3)cc12` [Compound 148, N-Cyclopropyl-5-(5-(pyrrolidin-1-ylmethyl)pyridin-3-yl)-1H-indazole-3-carboxamide], which EC50 is on record?
The EC50 was 11 nM.

For `O=C(NC1CCN(CC(F)F)CC1)c1n[nH]c2ccc(-c3cccc(F)c3F)cc12` [Compound 1161, N-(1-(2,2-Difluoroethyl)piperidin-4-yl)-5-(2,3-difluorophenyl)-1H-indazole-3-carboxamide], which EC50 is on record?
The EC50 was 134 nM.

For `CN(C)Cc1ccc(NC(=O)c2n[nH]c3ccc(-c4cccnc4)cc23)cc1` [Compound 1324, N-(4-((Dimethylamino)methyl)phenyl)-5-(pyridin-3-yl)-1H-indazole-3-carboxamide], which EC50 is on record?
Its EC50 is 10 nM.

With `CC(C)N1CCC(NC(=O)c2n[nH]c3ccc(-c4cncc(C(F)F)c4)cc23)CC1` [Compound 1303, 5-(5-(Difluoromethyl)pyridin-3-yl)-N-(1-isopropylpiperidin-4-yl)-1H-indazole-3-carboxamide] as the molecule, how does the EC50 read?
The EC50 was 117 nM.

For `CCN1CCC(NC(=O)c2n[nH]c3ccc(-c4cnc5ccccc5c4)cc23)CC1` [Compound 1294, N-(1-Ethylpiperidin-4-yl)-5-(quinolin-3-yl)-1H-indazole-3-carboxamide], which EC50 is on record?
Its EC50 is 238 nM.

`O=C(NCCN1CCCC1)c1n[nH]c2ccc(-c3cccnc3)cc12` [Compound 1195, 5-(Pyridin-3-yl)-N-(2-(pyrrolidin-1-yl)ethyl)-1H-indazole-3-carboxamide] was tested. Which EC50 did it give?
Its EC50 is 4 nM.

For `O=C(Nc1ccnc(N2CCCCC2)c1)c1n[nH]c2ccc(-c3cncc(CN4CCCCC4)c3)cc12` [Compound 101, N-(2-(Piperidin-1-yl)pyridin-4-yl)-5-(5-(piperidin-1-ylmethyl)pyridin-3-yl)-1H-indazole-3-carboxamide], which EC50 is on record?
Its EC50 is 1 nM.

For `CCN(CC)Cc1cncc(-c2ccc3[nH]nc(C(=O)NC(C)(C)C)c3c2)c1` [Compound 1252, N-(tert-Butyl)-5-(5-((diethylamino)methyl)pyridin-3-yl)-1H-indazole-3-carboxamide], which EC50 is on record?
Its EC50 is 421 nM.

`CN(C)CCNC(=O)c1n[nH]c2ccc(-c3cccc(F)c3F)cc12` [Compound 1165, 5-(2,3-Difluorophenyl)-N-(2-(dimethylamino)ethyl)-1H-indazole-3-carboxamide] was tested. Which EC50 did it give?
The EC50 was 77 nM.

`O=C(NC1CCOCC1)c1n[nH]c2ccc(-c3cccnc3)cc12` [Compound 2, 5-(Pyridin-3-yl)-N-(tetrahydro-2H-pyran-4-yl)-1H-indazole-3-carboxamide] was tested. Which EC50 did it give?
The EC50 was 31 nM.
